Tests used:
KRAS G12S = KRAS G12S (Homo sapiens, UniProt P01116+P62937, G12S); test: Ras-Raf disruption / FRET / MOA assay (BRAF RBD); type: biochemical; settings: KRAS G12S FRET data IC50, Ras-Raf disruption, with Cyclophilin A
In short: (§1)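 TR-FRET in 25 mM HEPES pH 7.3, 100 mM NaCl, 5 mM MgCl2, 0.1% BSA, 0.002% Tween20 with 25 μM Cyclophilin A, 12.5 nM His6-Ras-GMPPNP, 50 nM GST-BRAF RBD; compound 10-point 3-fold series from 30 μM. After 3 h at 25 °C, Eu anti-His/APC anti-GST added for 1.5 h; IC50 from ratio decrease versus DMSO.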

KRAS G13D = KRAS G13D (Homo sapiens, UniProt P01116+P62937, G13D); test: Ras-Raf disruption / FRET / MOA assay (BRAF RBD); type: biochemical; settings: KRAS G13D FRET data IC50, Ras-Raf disruption, with Cyclophilin A
Chain of KRAS G13D (P01116 1-169 isoform P01116-2 G13D limits assumed): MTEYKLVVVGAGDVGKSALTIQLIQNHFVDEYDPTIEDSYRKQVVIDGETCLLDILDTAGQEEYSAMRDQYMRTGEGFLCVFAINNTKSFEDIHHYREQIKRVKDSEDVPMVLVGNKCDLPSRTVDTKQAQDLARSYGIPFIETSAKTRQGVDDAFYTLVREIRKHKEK
Chain of KRAS G13D (P62937 whole entry): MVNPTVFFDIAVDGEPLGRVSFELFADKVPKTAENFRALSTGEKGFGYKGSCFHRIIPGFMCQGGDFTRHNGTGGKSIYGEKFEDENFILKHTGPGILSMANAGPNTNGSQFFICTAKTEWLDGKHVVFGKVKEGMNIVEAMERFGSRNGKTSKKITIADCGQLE
In short: as §1

KRAS G12V = KRAS G12V (Homo sapiens, UniProt P01116+P62937, G12V); test: Ras-Raf disruption / FRET / MOA assay (BRAF RBD); type: biochemical; settings: KRAS G12V FRET data IC50, Ras-Raf disruption, with Cyclophilin A
Chain of KRAS G12V (P01116 1-169 isoform P01116-2 G12V limits assumed): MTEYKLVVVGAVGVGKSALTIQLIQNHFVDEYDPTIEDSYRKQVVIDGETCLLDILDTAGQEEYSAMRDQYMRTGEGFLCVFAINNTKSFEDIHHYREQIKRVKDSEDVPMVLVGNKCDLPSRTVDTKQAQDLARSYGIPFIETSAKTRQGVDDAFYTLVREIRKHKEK
Chain of KRAS G12V (P62937 whole entry): as the sequence (P62937 whole entry) above
In short: as §1

KRAS G13C = KRAS G13C (Homo sapiens, UniProt P01116+P62937, G13C); test: Ras-Raf disruption / FRET / MOA assay (BRAF RBD); type: biochemical; settings: KRAS G13C FRET data IC50, Ras-Raf disruption, with Cyclophilin A
Chain of KRAS G13C (P01116 1-169 isoform P01116-2 G13C limits assumed): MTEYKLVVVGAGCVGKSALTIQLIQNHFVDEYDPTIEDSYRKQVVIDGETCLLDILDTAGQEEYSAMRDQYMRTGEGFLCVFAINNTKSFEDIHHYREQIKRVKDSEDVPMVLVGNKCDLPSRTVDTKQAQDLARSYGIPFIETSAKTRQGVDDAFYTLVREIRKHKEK
Chain of KRAS G13C (P62937 whole entry): as the sequence (P62937 whole entry) above
In short: as §1

NRAS G12C = NRAS G12C (Homo sapiens, UniProt P01111+P62937, G12C); test: Ras-Raf disruption / FRET / MOA assay (BRAF RBD); type: biochemical; settings: NRAS G12C FRET data IC50, NRAS G12C
Chain of NRAS G12C (P01111 whole entry G12C): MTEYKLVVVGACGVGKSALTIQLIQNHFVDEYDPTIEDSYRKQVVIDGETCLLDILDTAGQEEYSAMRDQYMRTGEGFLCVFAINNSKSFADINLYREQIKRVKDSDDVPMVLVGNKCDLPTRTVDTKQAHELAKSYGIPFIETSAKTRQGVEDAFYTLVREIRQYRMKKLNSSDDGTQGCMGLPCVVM
Chain of NRAS G12C (P62937 whole entry): as the sequence (P62937 whole entry) above
In short: as §1

KRAS WT = KRAS WT (Homo sapiens, UniProt P01116+P62937); test: Ras-Raf disruption / FRET / MOA assay (BRAF RBD); type: biochemical; settings: KRAS WT FRET data IC50, Ras-Raf disruption, with Cyclophilin A
Chain of KRAS WT (P01116 1-169 isoform P01116-2 limits assumed): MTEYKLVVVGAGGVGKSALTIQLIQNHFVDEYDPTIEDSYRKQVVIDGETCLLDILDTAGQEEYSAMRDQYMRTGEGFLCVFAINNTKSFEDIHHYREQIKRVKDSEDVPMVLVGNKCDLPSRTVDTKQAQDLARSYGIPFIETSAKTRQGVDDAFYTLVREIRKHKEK
Chain of KRAS WT (P62937 whole entry): as the sequence (P62937 whole entry) above
In short: as §1

KRAS G12D = KRAS G12D (Homo sapiens, UniProt P01116+P62937, G12D); test: Ras-Raf disruption / FRET / MOA assay (BRAF RBD); type: biochemical; settings: KRAS G12D FRET data IC50, Ras-Raf disruption, with Cyclophilin A
Chain of KRAS G12D (P01116 1-169 isoform P01116-2 G12D limits assumed): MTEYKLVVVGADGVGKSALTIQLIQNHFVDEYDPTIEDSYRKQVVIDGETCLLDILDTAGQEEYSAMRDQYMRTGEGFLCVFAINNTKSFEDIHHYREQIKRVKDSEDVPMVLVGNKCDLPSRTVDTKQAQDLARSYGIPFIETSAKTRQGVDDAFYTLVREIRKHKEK
Chain of KRAS G12D (P62937 whole entry): as the sequence (P62937 whole entry) above
In short: as §1

NCI-H358 (K-Ras G12C) = test: CellTiter-Glo cell viability assay; type: cell-based; settings: Homo sapiens, NCI-H358, 120 h, read-out: H358 Cell Viability assay data IC50, K-Ras G12C, 5-day treatment
In short: (§2)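 Viability is scored by CellTiter-Glo luminescence on day 5 of compound treatment, relative to vehicle (DMSO) wells set as 100%, with a four-parameter logistic fit.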

AsPC-1 (K-Ras G12D) [1] = test: CellTiter-Glo cell viability assay; type: cell-based; settings: Homo sapiens, ASPC1, 120 h, read-out: AsPC-1 Cell Viability assay data IC50, K-Ras G12D, 5-day treatment
In short: as §2

KRAS G12C = KRAS G12C (Homo sapiens, UniProt P01116+P62937, G12C); test: Ras-Raf disruption / FRET / MOA assay (BRAF RBD); type: biochemical; settings: KRAS G12C FRET data IC50, Ras-Raf disruption, with Cyclophilin A
Chain of KRAS G12C (P01116 1-169 isoform P01116-2 G12C limits assumed): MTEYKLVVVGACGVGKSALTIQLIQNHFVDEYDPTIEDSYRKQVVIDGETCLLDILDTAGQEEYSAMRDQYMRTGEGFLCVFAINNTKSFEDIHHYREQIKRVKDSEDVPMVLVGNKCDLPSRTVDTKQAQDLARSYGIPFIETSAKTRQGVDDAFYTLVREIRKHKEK
Chain of KRAS G12C (P62937 whole entry): as the sequence (P62937 whole entry) above
In short: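 His6-K-Ras G12C-GMPPNP (12.5 nM), GST-BRAF RBD (50 nM) and tagless Cyclophilin A (25 μM) incubated 3 h at 25 °C with compound (10-point 3-fold series from 30 μM), pH 7.3 HEPES buffer. Anti-His Eu/anti-GST APC added for 1.5 h; decreased TR-FRET ratio vs DMSO gives IC50.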

AsPC-1 (K-Ras G12D) [2] = test: Potency assay: pERK; type: cell-based; settings: Homo sapiens, ASPC1, read-out: pERK EC50

Chain of KRAS G12S (P01116 1-169 isoform P01116-2 G12S limits assumed): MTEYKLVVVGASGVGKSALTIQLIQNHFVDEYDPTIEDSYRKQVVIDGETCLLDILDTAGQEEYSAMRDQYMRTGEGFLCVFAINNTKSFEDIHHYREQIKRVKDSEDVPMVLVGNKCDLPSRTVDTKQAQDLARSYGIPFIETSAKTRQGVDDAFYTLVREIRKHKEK
Chain of KRAS G12S (P62937 whole entry): as the sequence (P62937 whole entry) above

Compound | IC50 (KRAS G12S) [nM] | IC50 (KRAS G13D) [nM] | IC50 (KRAS G12V) [nM] | IC50 (KRAS G13C) [nM] | IC50 (NRAS G12C) [nM] | IC50 (KRAS WT) [nM] | IC50 (KRAS G12D) [nM] | IC50 (NCI-H358 (K-Ras G12C)) [nM] | IC50 (AsPC-1 (K-Ras G12D) [1]) [nM] | IC50 (KRAS G12C) [nM] | EC50 (AsPC-1 (K-Ras G12D) [2]) [nM]
CCn1c(-c2cccnc2[C@H](C)OC)c2c3cc(ccc31)-c1cccc(c1)C[C@H](NC(=O)[C@H](C(C)C)N(C)C(=O)CN(C)C(=O)[C@H]1CN1)C(=O)N1CCC[C@H](N1)C(=O)OCC(C)(C)C2 [Example 107] | 1000 to 10000 | 1000 to 10000 | 1000 to 10000 | 100 to 1000 | 100 to 1000 | 1000 to 10000 | 1000 to 10000 | 100 to 1000 | 1000 to 10000 | 100 to 1000 | < 5000
CCn1c(-c2cccnc2[C@H](C)OC)c2c3cc(ccc31)-c1cc(O)cc(c1)C[C@H](NC(=O)[C@H](C(C)C)N(C)C(=O)CN(C)C(=O)[C@@H]1N[C@@H]1C1CC1)C(=O)N1CCC[C@H](N1)C(=O)OCC(C)(C)C2 [Example 133] | 10 to 100 | 10 to 100 | 10 to 100 | 10 to 100 | 10 to 100 | 10 to 100 | 10 to 100 | 10 to 100 | 10 to 100 | 10 to 100 | < 5000
CCn1c(-c2cccnc2[C@H](C)OC)c2c3cc(ccc31)-c1cc(O)cc(c1)C[C@H](NC(=O)[C@H](C(C)C)N(C)C(=O)CN(C)C(=O)[C@@H]1CN1CCCOC)C(=O)N1CCC[C@H](N1)C(=O)OCC(C)(C)C2 (some centres unmarked) [Example 137] | 10 to 100 | 10 to 100 | 10 to 100 | 10 to 100 | < 10 | 10 to 100 | 10 to 100 | < 10 | 100 to 1000 | < 10 | < 5000
CCn1c(-c2cccnc2[C@H](C)OC)c2c3cc(ccc31)-c1cc(O)cc(c1)C[C@H](NC(=O)[C@H](C(C)C)N(C)C(=O)CN(C)C(=O)[C@H]1CN1C(C)C)C(=O)N1CCC[C@H](N1)C(=O)OCC(C)(C)C2 (some centres unmarked) [Example 142] | 10 to 100 | 100 to 1000 | 100 to 1000 | 10 to 100 | < 10 | 100 to 1000 | 100 to 1000 | < 10 | 100 to 1000 | < 10 | < 5000
CCn1c(-c2cccnc2[C@H](C)OC)c2c3cc(ccc31)-c1cc(O)cc(c1)C[C@H](NC(=O)[C@H](C(C)C)N(C)C(=O)CN(C)C(=O)[C@@H]1CN1C(C)C)C(=O)N1CCC[C@H](N1)C(=O)OCC(C)(C)C2 (some centres unmarked) [Example 148] | 10 to 100 | 10 to 100 | 10 to 100 | 10 to 100 | < 10 | 10 to 100 | 10 to 100 | < 10 | 100 to 1000 | < 10 | < 5000
CCn1c(-c2cccnc2[C@H](C)OC)c2c3cc(ccc31)-c1cc(O)cc(c1)C[C@H](NC(=O)[C@H](C(C)C)N(C)C(=O)CN(C)C(=O)[C@H]1CN1Cc1ccccc1F)C(=O)N1CCC[C@H](N1)C(=O)OCC(C)(C)C2 (some centres unmarked) [Example 155] | 10 to 100 | 100 to 1000 | 10 to 100 | 10 to 100 | < 10 | 10 to 100 | 100 to 1000 | < 10 | 100 to 1000 | 10 to 100 | < 5000
CCn1c(-c2cccnc2[C@H](C)OC)c2c3cc(ccc31)-c1cc(O)cc(c1)C[C@H](NC(=O)[C@H](C(C)C)N(C)C(=O)CN(C)C(=O)[C@H]1CN1Cc1ccccc1CO)C(=O)N1CCC[C@H](N1)C(=O)OCC(C)(C)C2 (some centres unmarked) [Example 156] | 10 to 100 | 100 to 1000 | 10 to 100 | 10 to 100 | < 10 | 10 to 100 | 100 to 1000 | < 10 | 100 to 1000 | < 10 | < 5000

— patent US20230233569A1 (Revolution Medicines, Inc., priority 2020, published 2023)
